According to patent publication US20210213176A1, “CHEMICAL VAPOR DEPOSITION OF POLYMER COATINGS FOR CONTROLLED DRUG RELEASE, ASSEMBLIES CONTAINING SAME, AND METHODS OF PRODUCTION AND USE THEREOF” (The Board of Regents for the Oklahoma Agricultural and …, priority 2020, published 2021):

How the values were obtained:
smooth muscle cells = conditions: atorvastatin concentration as low as 0.1 μM (Petersen et al., 2013; Baetta et al., 1997); cited from earlier work
[1] = tested on: human smooth muscle cells; conditions: 2.5 μM atorvastatin in medium (Dubuis et al., 2013); cited from earlier work
[2] = tested on: Human coronary artery smooth muscle cells (HCASMC); assay: MTT cell metabolism assay on nanocoated devices; conditions: PDE31 coated, dose densities up to 100 μg/cm^2

Compound: CC(C)c1c(C(=O)Nc2ccccc2)c(-c2ccccc2)c(-c2ccc(F)cc2)n1CC[C@@H](O)C[C@@H](O)CC(=O)[O-].CC(C)c1c(C(=O)Nc2ccccc2)c(-c2ccccc2)c(-c2ccc(F)cc2)n1CC[C@@H](O)C[C@@H](O)CC(=O)[O-].[Ca+2] [atorvastatin, Atorvastatin calcium]
- growth of smooth muscle cells (smooth muscle cells): effective in suppressing the growth
- viability of human smooth muscle cells [1]: does not suppress the viability
- MTT activity of HCASMC with atorvastatin release [2]: no significant difference
